{
  "source": "paper PMC8523698",
  "about": "“Preclinical characterization of an intravenous coronavirus 3CL protease inhibitor for the potential treatment of COVID19” (Nature Communications, 2021)",
  "key": {"[1]": {"test_system": "SARS-CoV-2 Belgium/GHB-03021/2020 strain", "assay": "microbe, parasite or virus in culture", "assay_type": "cell-based", "parameters": "Percent Effect: scale not given: direction of the effect not stated beside the values"}, "[2]": {"assay": "Human blood hemocompatibility (hemolysis, flocculation)"}, "in vitro": {"assay": "in vitro", "conditions": "African green monkey, CC50"}, "hERG channel": {"target": "hERG channel (Homo sapiens, UniProt Q12809)", "sequence (Q12809 whole entry)": "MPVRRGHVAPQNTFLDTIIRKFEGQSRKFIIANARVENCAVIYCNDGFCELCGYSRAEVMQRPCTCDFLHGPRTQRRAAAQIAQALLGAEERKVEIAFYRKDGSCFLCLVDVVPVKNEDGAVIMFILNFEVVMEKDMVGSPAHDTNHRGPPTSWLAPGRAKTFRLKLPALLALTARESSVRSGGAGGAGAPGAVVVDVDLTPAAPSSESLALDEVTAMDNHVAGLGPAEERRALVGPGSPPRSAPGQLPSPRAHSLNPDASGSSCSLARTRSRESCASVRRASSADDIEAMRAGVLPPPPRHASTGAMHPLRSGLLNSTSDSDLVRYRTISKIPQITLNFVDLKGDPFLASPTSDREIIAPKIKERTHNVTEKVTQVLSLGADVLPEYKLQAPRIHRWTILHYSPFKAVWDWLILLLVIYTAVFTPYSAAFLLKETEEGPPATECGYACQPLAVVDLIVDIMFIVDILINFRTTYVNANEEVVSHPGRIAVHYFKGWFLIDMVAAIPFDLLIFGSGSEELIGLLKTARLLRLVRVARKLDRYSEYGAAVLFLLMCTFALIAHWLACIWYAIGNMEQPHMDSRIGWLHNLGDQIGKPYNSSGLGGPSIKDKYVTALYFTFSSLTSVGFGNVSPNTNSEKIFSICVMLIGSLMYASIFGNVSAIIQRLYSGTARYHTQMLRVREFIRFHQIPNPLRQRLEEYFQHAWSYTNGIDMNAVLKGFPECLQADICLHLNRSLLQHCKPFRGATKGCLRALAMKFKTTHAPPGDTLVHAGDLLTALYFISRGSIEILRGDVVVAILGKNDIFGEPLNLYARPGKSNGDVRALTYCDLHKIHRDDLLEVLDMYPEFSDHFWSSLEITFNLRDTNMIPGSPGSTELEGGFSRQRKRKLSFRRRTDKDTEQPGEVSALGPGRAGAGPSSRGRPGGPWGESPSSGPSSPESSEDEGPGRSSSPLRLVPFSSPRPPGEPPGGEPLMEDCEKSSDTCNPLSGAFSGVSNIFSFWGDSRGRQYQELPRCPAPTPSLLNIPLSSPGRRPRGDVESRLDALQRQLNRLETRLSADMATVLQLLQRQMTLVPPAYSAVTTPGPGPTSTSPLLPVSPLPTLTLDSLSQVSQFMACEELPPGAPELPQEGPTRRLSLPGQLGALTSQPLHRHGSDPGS", "assay": "hERG potassium channel current assay"}, "OAT3": {"target": "T1, OAT3 (Homo sapiens, UniProt Q8TCC7)", "T1 sequence (Q8TCC7 1-542)": "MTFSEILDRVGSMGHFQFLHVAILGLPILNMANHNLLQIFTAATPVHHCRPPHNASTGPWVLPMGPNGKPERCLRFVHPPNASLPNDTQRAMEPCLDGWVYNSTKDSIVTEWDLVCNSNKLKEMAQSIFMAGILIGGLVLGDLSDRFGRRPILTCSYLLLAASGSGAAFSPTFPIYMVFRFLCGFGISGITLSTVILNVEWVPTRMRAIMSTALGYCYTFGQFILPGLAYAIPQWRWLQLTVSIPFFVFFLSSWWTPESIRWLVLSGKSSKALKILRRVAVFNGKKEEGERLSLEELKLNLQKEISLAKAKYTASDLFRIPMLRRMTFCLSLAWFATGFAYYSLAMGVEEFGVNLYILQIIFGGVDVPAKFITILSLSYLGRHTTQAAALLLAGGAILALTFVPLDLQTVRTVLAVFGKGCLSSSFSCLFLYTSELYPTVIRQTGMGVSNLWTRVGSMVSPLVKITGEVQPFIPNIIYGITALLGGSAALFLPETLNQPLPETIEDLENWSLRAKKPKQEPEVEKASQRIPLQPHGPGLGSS", "assay": "Transporter inhibition using transfected HEK293 cells", "conditions": "IC50, [3H]ES (0.1 µM)"}, "[3]": {"assay": "Plasma protein binding by equilibrium dialysis", "conditions": "dog plasma, 3.44 uM; for fraction unbound at 6 h, 3.44 uM: dog, plasma"}, "OAT1": {"target": "T2, OAT1 (Homo sapiens, UniProt Q4U2R8)", "T2 sequence (Q4U2R8 1-563)": "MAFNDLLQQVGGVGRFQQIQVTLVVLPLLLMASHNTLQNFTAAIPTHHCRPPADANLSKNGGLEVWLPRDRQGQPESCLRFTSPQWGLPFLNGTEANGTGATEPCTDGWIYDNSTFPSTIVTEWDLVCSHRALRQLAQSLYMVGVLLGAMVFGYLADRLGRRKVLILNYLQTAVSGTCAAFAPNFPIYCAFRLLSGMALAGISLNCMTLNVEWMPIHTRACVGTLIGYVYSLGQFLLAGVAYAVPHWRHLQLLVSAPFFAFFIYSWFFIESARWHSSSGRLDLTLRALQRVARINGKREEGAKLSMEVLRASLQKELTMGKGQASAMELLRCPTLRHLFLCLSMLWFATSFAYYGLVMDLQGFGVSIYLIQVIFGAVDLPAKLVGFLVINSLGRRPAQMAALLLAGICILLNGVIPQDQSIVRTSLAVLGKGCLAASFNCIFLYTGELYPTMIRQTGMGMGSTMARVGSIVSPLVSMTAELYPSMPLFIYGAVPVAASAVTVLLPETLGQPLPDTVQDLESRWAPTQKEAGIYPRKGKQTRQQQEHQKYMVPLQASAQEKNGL", "assay": "Transporter inhibition using transfected HEK293 cells", "conditions": "IC50, [3H]PAH (0.5 µM)"}, "[4]": {"test_system": "Salmonella typhimurium strains and E. coli strain WP2 uvrA", "assay": "Bacterial reverse mutation assay", "conditions": "with and without metabolic activation"}, "CYP1A2": {"target": "T3, CYP1A2 (Homo sapiens, UniProt P05177)", "T3 sequence (P05177 1-516)": "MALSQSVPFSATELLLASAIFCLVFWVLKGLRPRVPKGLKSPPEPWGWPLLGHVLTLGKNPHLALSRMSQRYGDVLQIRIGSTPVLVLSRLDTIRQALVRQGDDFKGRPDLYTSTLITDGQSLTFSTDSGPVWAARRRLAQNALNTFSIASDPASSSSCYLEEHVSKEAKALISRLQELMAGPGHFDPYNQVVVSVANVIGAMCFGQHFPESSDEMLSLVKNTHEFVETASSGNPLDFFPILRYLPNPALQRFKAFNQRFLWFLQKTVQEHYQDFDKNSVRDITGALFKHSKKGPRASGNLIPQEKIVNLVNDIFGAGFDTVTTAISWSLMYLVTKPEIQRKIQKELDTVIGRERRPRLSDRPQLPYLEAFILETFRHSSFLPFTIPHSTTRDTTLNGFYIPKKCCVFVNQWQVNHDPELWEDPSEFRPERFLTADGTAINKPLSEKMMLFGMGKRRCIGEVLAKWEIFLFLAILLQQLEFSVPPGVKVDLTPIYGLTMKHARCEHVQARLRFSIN", "assay": "Reversible CYP inhibition in human liver microsomes", "conditions": "for activity at 0.01 µM / activity at 0.158 µM / activity at 0.398 µM / activity at 1 µM / activity at 15.8 µM / activity at 39.8 µM / activity at 100 µM: human, microsomes, pH 7.4, Percent of Control Activity"}, "CYP3A4/5": {"test_system": "CYP3A4/5", "assay": "Time-dependent inhibition of CYP enzymes in human liver microsomes", "conditions": "pooled HLM"}},
  "note": "“And” between values parts separate entries of the source, which are not always exact repeats. Equal entries are not always repeated. Where two headings read alike, the source gives them in different places.",
  "data": [
    {"smiles": "COc1cccc2[nH]c(C(=O)N[C@@H](CC(C)C)C(=O)N[C@@H](C[C@@H]3CCNC3=O)C(=O)CO)cc12", "note": "[PF-00835231-00]", "values": [
      {"measurement": "Percent Effect", "setting": "[1]", "result": 0.59, "unit": "%"}
    ]},
    {"smiles": "COc1cccc2[nH]c(C(=O)N[C@@H](CC(C)C)C(=O)N[C@@H](C[C@@H]3CCNC3=O)C(=O)COP(=O)(O)O)cc12", "note": "[PF-07304814]", "values": [
      {"measurement": "hemolysis or flocculation/turbidity parameters", "setting": "[2]", "result": "no effect on hemolysis or flocculation/turbidity parameters"},
      {"measurement": "CC50", "setting": "in vitro", "result": "> 100", "unit": "µM"},
      {"measurement": "hERG margin in reference to projected unbound human Cmax", "setting": "hERG channel; 300 µM vs projected Cmax at projected human efficacious dose", "result": "1,770 fold"},
      {"measurement": "concentration up to which hERG current amplitude was not inhibited", "setting": "hERG channel; human", "result": 300, "unit": "µM"},
      {"measurement": "IC50", "setting": "OAT3", "result": "> 300", "unit": "µM"},
      {"measurement": "fraction unbound at 6 h, 3.44 uM", "setting": "[3]; both, Beagle, pH 7.4, Individual fraction unbound, Beagle, male and female, Day 1", "result": 0.322},
      {"measurement": "fraction unbound at 6 h, 3.44 uM", "setting": "[3]; both, Beagle, pH 7.4, Individual fraction unbound, Beagle, male and female, Day 2", "result": 0.344},
      {"measurement": "fraction unbound at 6 h, 3.44 uM", "setting": "[3]; both, Beagle, pH 7.4, Individual fraction unbound, Beagle, male and female, Day 3", "result": 0.303},
      {"measurement": "Individual fraction unbound", "setting": "[3]; Beagle, male and female, Day 1", "result": "0.288 and 0.267 and 0.276"},
      {"measurement": "Individual fraction unbound", "setting": "[3]; Beagle, male and female, Day 2", "result": "0.33 and 0.389 and 0.349"},
      {"measurement": "Individual fraction unbound", "setting": "[3]; Beagle, male and female, Day 3", "result": "0.301 and 0.285 and 0.313"},
      {"measurement": "fraction unbound at 6 h, 3.44 uM", "setting": "[3]; pH 7.4, fraction unbound Geomean, n=12", "result": 0.312},
      {"measurement": "IC50", "setting": "OAT1", "result": "> 300", "unit": "µM"},
      {"measurement": "bacterial reverse mutation assay result", "setting": "[4]", "result": "negative"},
      {"measurement": "IC50", "setting": "CYP1A2", "result": "> 100", "unit": "µM"},
      {"measurement": "Percent of Control Activity", "setting": "CYP1A2; CYP 1A2, 0.01 µM, 30-Minute Preincubation, 0.01 µM", "result": "103.6% and 101.2%"},
      {"measurement": "Percent of Control Activity", "setting": "CYP1A2; CYP 1A2, 0.01 µM, Zero-Minute Preincubation, 0.01 µM", "result": 97.5, "unit": "%"},
      {"measurement": "Percent of Control Activity", "setting": "CYP1A2; CYP 1A2, 0.158 µM, 30-Minute Preincubation, 0.158 µM", "result": "95.4% and 101.9%"},
      {"measurement": "Percent of Control Activity", "setting": "CYP1A2; CYP 1A2, 0.158 µM, Zero-Minute Preincubation, 0.158 µM", "result": "97.0% and 100.9%"},
      {"measurement": "Percent of Control Activity", "setting": "CYP1A2; CYP 1A2, 0.398 µM, 30-Minute Preincubation, 0.398 µM", "result": "101.4% and 101.2%"},
      {"measurement": "Percent of Control Activity", "setting": "CYP1A2; CYP 1A2, 0.398 µM, Zero-Minute Preincubation, 0.398 µM", "result": "96.0% and 97.7%"},
      {"measurement": "Percent of Control Activity", "setting": "CYP1A2; CYP 1A2, 1 µM, 30-Minute Preincubation, 1 µM", "result": "102.8% and 101.6%"},
      {"measurement": "Percent of Control Activity", "setting": "CYP1A2; CYP 1A2, 1 µM, Zero-Minute Preincubation, 1 µM", "result": "94.7% and 96.1%"},
      {"measurement": "Percent of Control Activity", "setting": "CYP1A2; CYP 1A2, 15.8 µM, 30-Minute Preincubation, 15.8 µM", "result": 103.2, "unit": "%"},
      {"measurement": "Percent of Control Activity", "setting": "CYP1A2; CYP 1A2, 39.8 µM, 30-Minute Preincubation, 39.8 µM", "result": "101.7% and 102.7%"},
      {"measurement": "Percent of Control Activity", "setting": "CYP1A2; CYP 1A2, 39.8 µM, Zero-Minute Preincubation, 39.8 µM", "result": "98.4% and 99.6%"},
      {"measurement": "Percent of Control Activity", "setting": "CYP1A2; CYP 1A2, 100 µM, 30-Minute Preincubation, 100 µM", "result": "104.3% and 102.5%"},
      {"measurement": "Percent of Control Activity", "setting": "CYP1A2; CYP 1A2, 100 µM, Zero-Minute Preincubation, 100 µM", "result": "94.4% and 97.1%"},
      {"measurement": "IC50", "setting": "CYP1A2; Phenacetin O-dealkylation, 30-minute preincubation (T30)", "result": "> 100", "unit": "µM"},
      {"measurement": "activity at 0.01 µM", "setting": "CYP1A2; CYP 1A2, 0.01 µM, 30-Minute Preincubation", "result": 96.7, "unit": "%"},
      {"measurement": "activity at 0.01 µM", "setting": "CYP1A2; CYP 1A2, 0.01 µM, Zero-Minute Preincubation", "result": 100, "unit": "%"},
      {"measurement": "activity at 0.158 µM", "setting": "CYP1A2; CYP 1A2, 0.158 µM, 30-Minute Preincubation", "result": 102, "unit": "%"},
      {"measurement": "activity at 0.158 µM", "setting": "CYP1A2; CYP 1A2, 0.158 µM, Zero-Minute Preincubation", "result": 96.4, "unit": "%"},
      {"measurement": "activity at 0.398 µM", "setting": "CYP1A2; CYP 1A2, 0.398 µM, 30-Minute Preincubation", "result": 102, "unit": "%"},
      {"measurement": "activity at 0.398 µM", "setting": "CYP1A2; CYP 1A2, 0.398 µM, Zero-Minute Preincubation", "result": 98.5, "unit": "%"},
      {"measurement": "activity at 1 µM", "setting": "CYP1A2; CYP 1A2, 1 µM, 30-Minute Preincubation", "result": 100, "unit": "%"},
      {"measurement": "activity at 1 µM", "setting": "CYP1A2; CYP 1A2, 1 µM, Zero-Minute Preincubation", "result": 99.4, "unit": "%"},
      {"measurement": "activity at 15.8 µM", "setting": "CYP1A2; CYP 1A2, 15.8 µM, 30-Minute Preincubation", "result": 102, "unit": "%"},
      {"measurement": "activity at 15.8 µM", "setting": "CYP1A2; CYP 1A2, 15.8 µM, Zero-Minute Preincubation", "result": 100, "unit": "%"},
      {"measurement": "activity at 39.8 µM", "setting": "CYP1A2; CYP 1A2, 39.8 µM, 30-Minute Preincubation", "result": 102, "unit": "%"},
      {"measurement": "activity at 39.8 µM", "setting": "CYP1A2; CYP 1A2, 39.8 µM, Zero-Minute Preincubation", "result": 98.5, "unit": "%"},
      {"measurement": "activity at 100 µM", "setting": "CYP1A2; CYP 1A2, 100 µM, 30-Minute Preincubation", "result": 103, "unit": "%"},
      {"measurement": "activity at 100 µM", "setting": "CYP1A2; CYP 1A2, 100 µM, Zero-Minute Preincubation", "result": 97.8, "unit": "%"},
      {"measurement": "time-dependent inhibition (TDI) signal", "setting": "CYP3A4/5", "result": "no evidence of TDI"}
    ]}
  ]
}
